The target of the test is T1, Human HPK1, catalytic domain (Homo sapiens, UniProt Q92918).
T1 construct: purchased Carna
T1 sequence (Q92918 1-346): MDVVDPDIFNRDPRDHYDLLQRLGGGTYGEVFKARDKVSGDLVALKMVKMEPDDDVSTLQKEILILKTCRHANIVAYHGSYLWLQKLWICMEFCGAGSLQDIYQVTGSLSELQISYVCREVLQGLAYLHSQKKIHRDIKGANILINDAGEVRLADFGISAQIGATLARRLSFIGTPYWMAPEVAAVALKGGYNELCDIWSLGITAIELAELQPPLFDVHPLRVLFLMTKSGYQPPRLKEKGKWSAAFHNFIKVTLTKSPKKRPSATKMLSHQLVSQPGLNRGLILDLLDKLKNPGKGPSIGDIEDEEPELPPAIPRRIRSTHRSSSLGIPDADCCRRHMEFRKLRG
The experiment in a line: HPK1-SLP76 TR-FRET assay. Particulars: 75 pM HPK1, 10 uM ATP, 10 nM SLP76, 30 min compound pre-incubation. The class given is biochemical. Background: In TR-FRET formats the signal depends on donor and acceptor labels being close together.

Each structure is given as a SMILES string. pIC50: −log10 of the molar value.

Consider `COc1cc2c(cc1Nc1ncc(C(N)=O)c(Nc3ccccc3-n3ccnn3)n1)CN(C)CC2` [Example 7-77, 2-[(6-methoxy-2-methyl-1,2,3,4-tetrahydroisoquinolin-7-yl)amino]-4-{[2-(1H-1,2,3-triazol-1-yl)phenyl]amino}pyrimidine-5-carboxamide], for which the pIC50 (usually −log10 of the IC50, conventionally taken in molar units) was 9.64. For `NC(=O)c1cnc(Nc2ccc(F)cc2F)nc1Nc1cccc2c1CCNC2=O` [Example 25-17, 2-[(2,4-difluorophenyl)amino]-4-[(1-oxo-1,2,3,4-tetrahydroisoquinolin-5-yl)amino]pyrimidine-5-carboxamide], the pIC50 was 6.48. `COc1cc2c(cc1Nc1ncc(C(N)=O)c(NC3CC4CCC(C3)N4)n1)CN(C)CC2` (centres unmarked) [Example 26-27, 4-[(8-azabicyclo[3.2.1]octan-3-yl)amino]-2-[(6-methoxy-2-methyl-1,2,3,4-tetrahydroisoquinolin-7-yl)amino]pyrimidine-5-carboxamide] showed a pIC50 of 6.97.

`COc1cc2c(cc1Nc1ncc(C(N)=O)c(Nc3c(F)cccc3OC(F)F)n1)CN(C)CC2` [Example 4-31, 4-{[2-(difluoromethoxy)-6-fluorophenyl]amino}-2-1(6-methoxy-2-methyl-1,2,3,4-tetrahydroisoquinolin-7-yl)amino|pyrimidine-5-carboxamide] showed a pIC50 of 9.70. As for `COc1cc2c(cc1Nc1ncc(C(N)=O)c(Nc3cn(C)nc3C3CC3)n1)CN(C)CC2` [Example 7-81, 4-((3-cyclopropyl-1-methyl-1H-pyrazol-4-yl)amino)-2-((6-methoxy-2-methyl-1,2,3,4-tetrahydroisoquinolin-7-yl)amino)pyrimidine-5-carboxamide], the figure is 8.51; as for `CN1CCc2cc(F)c(Nc3ncc(C(N)=O)c(Nc4cccc5c4CCNC5=O)n3)cc2C1` [Example 7-37, 2-[(6-fluoro-2-methyl-1,2,3,4-tetrahydroisoquinolin-7-yl)amino]-4-[(1-oxo-1,2,3,4-tetrahydroisoquinolin-5-yl)amino]pyrimidine-5-carboxamide], 9.68. Turning to `CN1CCc2cc(Cl)c(Nc3ncc(C(N)=O)c(Nc4cccc5c4CCNC5=O)n3)cc2C1` [Example 7-36, 2-[(6-chloro-2-methyl-1,2,3,4-tetrahydroisoquinolin-7-yl)amino]-4-[(1-oxo-1,2,3,4-tetrahydroisoquinolin-5-yl)amino]pyrimidine-5-carboxamide], the pIC50 is 9.43.

Consider `CCn1nc(C)cc1Nc1nc(Nc2cc3c(cc2OC)CCN(C)C3)ncc1C(N)=O` [Example 7-79, 4-((1-ethyl-3-methyl-1H-pyrazol-5-yl)amino)-2-((6-methoxy-2-methyl-1,2,3,4-tetrahydroisoquinolin-7-yl)amino)pyrimidine-5-carboxamide], for which the pIC50 is 6.98.

With `COc1cc2c(cc1Nc1ncc(C(N)=O)c(Nc3ccccc3CN3CCOCC3)n1)CN(C)CC2` [Example 7-99, 2-[(6-methoxy-2-methyl-1,2,3,4-tetrahydroisoquinolin-7-yl)amino]-4-({2-[(morpholin-4-yl)methyl]phenyl}amino)pyrimi-dine-5-carboxamide], the pIC50 was 8.84.

Compound `COc1cc2c(cc1Nc1ncc(C(N)=O)c(Nc3ccccc3CC3CCOCC3)n1)CN(C)CC2` [Example 13-2, 2-[(6-methoxy-2-methyl-1,2,3,4-tetrahydroisoquinolin-7-yl)amino]-4-({2-[(oxan-4-yl)methyl]phenyl}amino)pyrimidine-5-carboxamide] gave a pIC50 of 9.04.

`COc1cc2c(cc1Nc1ncc(C(N)=O)c(Nc3ccccc3Br)n1)CN(S(=O)(=O)C(C)C)CC2` [Example 10-7, 4-[(2-bromophenyl)amino]-2-({6-methoxy-2-[(propan-2-yl)sulfonyl]-1,2,3,4-tetrahydroisoquinolin-7-yl}amino)pyrimidine-5-carboxamide] gave a pIC50 of 7.28. In turn, `COc1cc2c(cc1Nc1ncc(C(N)=O)c(Nc3ccccc3Br)n1)CNCC2` [Example 9-1, 4-[(2-bromophenyl)amino]-2-[(6-methoxy-1,2,3,4-tetrahydroisoquinolin-7-yl)amino]pyrimidine-5-carboxamide] gave a pIC50 of 10.05. As for `COc1cc2c(cc1Nc1ncc(C(N)=O)c(N[C@H]3c4ccccc4C[C@H]3CO)n1)CN(C)CC2` [Example 26-62, 4-{[(1R,2R)-2-(hydroxymethyl)-2,3-dihydro-1H-inden-1-yl]amino}-2-[(6-methoxy-2-methyl-1,2,3,4-tetrahydroisoquinolin-7-yl)amino]pyrimidine-5-carboxamide], the figure is 7.81; as for `CS(=O)(=O)c1ccc(Nc2ncc(C(N)=O)c(Nc3cccc4c3CCNC4)n2)cc1` [Example 7-1, 2-{[4-(methylsulfonyl)phenyl]amino}-4-[(1,2,3,4-tetrahydroisoquinolin-5-yl)amino]pyrimidine-5-carboxamide], 9.18; as for `COc1cc2c(cc1Nc1ncc(C(N)=O)c(Nc3c(Cl)ccc(C)c3F)n1)CN(C)CC2` [Example 4-20, 4-[(6-chloro-2-fluoro-3-methylphenyl)amino]-2-[(6-methoxy-2-methyl-1,2,3,4-tetrahydroisoquinolin-7-yl)amino]pyrimidine-5-carboxamide], 9.68.

For the compound `Cc1ccc(Nc2ncc(C(N)=O)c(Nc3cccc4c3CCNC4=O)n2)c(F)c1F` [Example 25-39, 2-[(2,3-difluoro-4-methylphenyl)amino]-4-[(1-oxo-1,2,3,4-tetrahydroisoquinolin-5-yl)amino]pyrimidine-5-carboxamide], the pIC50 is 7.71.

The compound `Cc1cc(Nc2ncc(C(N)=O)c(Nc3cccc4c3CCNC4=O)n2)ccc1F` [Example 25-30, 2-[(4-fluoro-3-methylphenyl)amino]-4-[(1-oxo-1,2,3,4-tetrahydroisoquinolin-5-yl)amino]pyrimidine-5-carboxamide] gave a pIC50 of 9.14. `COc1cc2c(cc1Nc1ncc(C(N)=O)c(Nc3ccccc3SC(F)(F)F)n1)CN(C)CC2` [Example 7-113, 2-[(6-methoxy-2-methyl-1,2,3,4-tetrahydroisoquinolin-7-yl)amino]-4-({2-[(trifluoromethyl)sulfanyl]phenyl}amino)pyrimidine-5-carobxamide] showed a pIC50 of 9.89. As to `COc1cc2c(cc1Nc1ncc(C(N)=O)c(N[C@@H](C)C3CCCCC3)n1)CN(C)CC2` [Example 26-7, 4-{[(1S)-1-cyclohexylethyl]amino}-2-[(6-methoxy-2-methyl-1,2,3,4-tetrahydroisoquinolin-7-yl)amino]pyrimidine-5-carboxamide], the pIC50 was 7.92. `COc1cc2c(cc1Nc1ncc(C(N)=O)c(Nc3c4c(nn3C)CCC4)n1)CN(C)CC2` [Example 7-84, 2-((6-methoxy-2-methyl-1,2,3,4-tetrahydroisoquinolin-7-yl)amino)-4-((2-methyl-2,4,5,6-tetrahydrocyclopenta[c]pyrazol-3-yl)amino)pyrimidine-5-carboxamide] gave a pIC50 of 8.25. Regarding `COc1cc2c(cc1Nc1ncc(C(N)=O)c(Nc3ccccc3OC(C)C)n1)CN(C)CC2` [Example 7-111, 2-[(6-methoxy-2-methyl-1,2,3,4-tetrahydroisoquinolin-7-yl)amino]-4-({2-[(propan-2-yl)oxy]phenyl}amino)pyrimidine-5-carboxamide], the pIC50 was 9.59.

Turning to `NC(=O)c1cnc(Nc2cnn(CC3CC3)c2)nc1Nc1cccc2c1CCNC2=O` [Example 7-43, 2-{[1-(cyclopropylmethyl)-1H-pyrazol-4-yl]amino}-4-[(1-oxo-1,2,3,4-tetrahydroisoquinolin-5-yl)amino]pyrimidine-5-carboxamide], the pIC50 is 8.37. As for `NC(=O)c1cnc(Nc2cnn(C3CCNCC3)c2)nc1Nc1cccc2c1CCNC2=O` [Example 7-52, 4-[(1-oxo-1,2,3,4-tetrahydroisoquinolin-5-yl)amino]-2-{[1-(piperidin-4-yl)-1H-pyrazol-4-yl]amino}pyrimidine-5-carboxamide], the pIC50 was 9.26. In turn, `CS(=O)(=O)Cc1ccc(Nc2ncc(C(N)=O)c(Nc3cccc4c3CCNC4=O)n2)cc1` [Example 7-59, 2-({4-[(methylsulfonyl)methyl]phenyl}amino)-4-[(1-oxo-1,2,3,4-tetrahydroisoquinolin-5-yl)amino]pyrimidine-5-carboxamide] gave a pIC50 of 8.67. As for `NC(=O)c1cnc(Nc2cnn(CC3CC3)c2)nc1Nc1cccc2c1CCNC2` [Example 7-8, 2-{[1-(cyclopropylmethyl)-1H-pyrazol-4-yl]amino}-4-[(1,2,3,4-tetrahydroisoquinolin-5-yl)amino]pyrimidine-5-carboxamide], the pIC50 was 8.83. `CCc1ccccc1Nc1nc(Nc2cc3c(cc2OC)CCN(C)C3)ncc1C(N)=O` [Example 4-27] had a pIC50 of 10.10. For `COc1cc2c(cc1Nc1ncc(C(N)=O)c(NCc3ccccc3C(F)(F)F)n1)CN(C)CC2` [Example 26-21, 2-[(6-methoxy-2-methyl-1,2,3,4-tetrahydroisoquinolin-7-yl)amino]-4-({[2-(trifluoromethyl)phenyl]methyl}amino)pyrimidine-5-carboxamide], the pIC50 is 9.66. `COc1cc2c(cc1Nc1ncc(C(N)=O)c(Nc3ccc(C)cc3Cl)n1)CN(C)CC2` [Example 4-19, 4-[(2-chloro-4-methylpheny 1)amino]-2-[(6-methoxy-2-methyl-1,2,3,4-tetrahydroisoquinolin-7-yl)amino]pyrimidine-5-carboxamide] gave a pIC50 of 9.42. Take `NC(=O)c1cnc(Nc2ccc3c(c2)COC3=O)nc1Nc1ccccc1Br` [Example 7-103, 4-[(2-bromopehnyl)amino]-2-[(1-oxo-1,3-dihydro-2-benzofuran-5-yl)amino]pyrimidine-5-carboxamide]: the pIC50 was 6.72.

The values above are taken from US20230416225A1, “DIAMINOPYRIMIDINE CARBOXAMIDE INHIBITORS OF HPK1” (MERCK SHARP & DOHME LLC, priority 2020, published 2023).
